Here are results for 4 compounds from US8937089B2, “Synergistic mixtures of anthranilamide invertebrate pest control agents” (priority 2004, dated 2015).

Read-outs that look alike come from different tables or passages of the source.

Experiment in all cases: whole plant or invertebrate
What all share (format): in vivo

Data set [1] has as its system corn planthopper (Peregrines maidis). As for the experimental part:
(§1) Test compounds were formulated using a solution containing 10% acetone, 90% water and 300 ppm X-77® Spreader Lo-Foam Formula non-ionic surfactant containing alkylarylpolyoxyethylene, free fatty acids, glycols and 2-propanol (Loveland Industries, Inc.) to provide the desired concentration in ppm. Formulated test solutions were then applied in 1 mL volumes through a SUJ2 atomizer nozzle with 1/8 JJ custom body (Spraying Systems Co.) positioned 1.27 cm (0.5 inches) above the top of each test unit.
For evaluating control of corn planthopper (Peregrines maidis) through contact and/or systemic means, each test unit consisted of a small open cylindrical container with a 3- to 4-day-old corn (maize) plant (spike) inside. White sand was added to the top of the soil prior to application. Test compounds were formulated and sprayed with 3 replications as described for Test A. After spraying, the test units were allowed to dry for 1 hour before they were post-infested with 10 to 20 corn planthoppers (18- to 20-day-old nymphs) by sprinkling them onto the sand with a salt shaker. A black, screened cap was placed on the top of each container. The test units were held for 6 days in a growth chamber at 19-21° C. and 50-70% relative humidity.

Data set [2] deals with silverleaf whitefly (Bemisia argentifolii Bellows and Perring). The following applies: for mortality at 100 ppm: rate 100 ppm; for mortality at 1000 ppm: rate 1000 ppm.
Text: For evaluating control of silverleaf whitefly (Bemisia argentifolii Bellows and Perring) through contact and/or systemic means, each test unit consisted of a small open container with a 12- to 14-day-old cotton plant inside. This was pre-infested by placing test units into cages infested with adult whiteflies so that oviposition on the cotton leaves could occur. The adults were removed from the plants with an air-blast nozzle, and the test units were capped. The test units were then stored 2 to 3 days before spraying.
as §1
The results for all experimental compositions in this test were replicated three times. After spraying of the formulated test composition, each test unit was allowed to dry for 1 hour and the cap removed. The test units were held for 13 days in a growth chamber at 28° C. and 50-70% relative humidity.

Data set [3] has as its system green peach aphid (Myzus persicae Sulzer). Conditions: for mortality at 1000 ppm: rate 1000 ppm. As for the experimental part: as §1
For evaluating control of green peach aphid (Myzus persicae Sulzer) through contact and/or systemic means, each test unit consisted of a small open container with a 12- to 15-day-old radish plant inside. This was pre-infested by placing on a leaf of the test plant 30 to 40 aphids on a piece of leaf excised from a culture plant (cut-leaf method). The larvae moved onto the test plant as the leaf piece desiccated. After pre-infestation, the soil of the test unit was covered with a layer of sand.
Test compounds were formulated and sprayed as described in Test A, replicated three times. After spraying of the formulated test compound, each test unit was allowed to dry for 1 hour and then a black, screened cap was placed on top. The test units were held for 6 days in a growth chamber at 19-21° C. and 50-70% relative humidity.

Data set [4] has as its system potato leafhopper (Empoasca fabae Harris). Here is the method:
as §1
[…] White sand was added to the top of the soil, and one of the primary leaves was excised prior to application. Test compounds were formulated and sprayed with 3 replications as described for Test A. After spraying, the test units were allowed to dry for 1 hour before they were infested with 5 potato leafhoppers (18- to 21-day-old adults). A black, screened cap was placed on the top of each container. The test units were held for 6 days in a growth chamber at 19-21° C. and 50-70% relative humidity.

Data set [5] concerns cotton melon aphid (Aphis gossypii Glover). Here is the method: as §1
For evaluating control of cotton melon aphid (Aphis gossypii Glover) through contact and/or systemic means, each test unit consisted of a small open container with a 6- to 7-day-old cotton plant inside. This was pre-infested by placing on a leaf of the test plant 30 to 40 aphids on a piece of leaf excised from a culture plant (cut-leaf method). The larvae moved onto the test plant as the leaf piece desiccated. After pre-infestation, the soil of the test unit was covered with a layer of sand.
Test compounds were formulated and sprayed as described for Test A. The applications were replicated three times. After spraying of the formulated test compounds, each test unit was allowed to dry for 1 hour and then a black, screened cap was placed on top. The test units were held for 6 days in a growth chamber at 19-21° C. and 50-70% relative humidity.

For data set [6], the system named is western flower thrip (Frankliniella occidentalis Pergande). Here is the method: as §1
For evaluating control of the western flower thrip (Frankliniella occidentalis Pergande) through contact and/or systemic means, each test unit consisted of a small open container with a 5- to 7-day-old bean (var. Soleil) plant inside.
Test solutions were formulated and sprayed with 3 replications as described for Test A. After spraying, the test units were allowed to dry for 1 hour, 22 to 27 adult thrips were added to each unit and then a black, screened cap was placed on top. The test units were held for 7 days at 25° C. and 45-55% relative humidity.

Where [7] appears, read: Bemisia argentifolii, in Gossypium hirsutum, Table 2B, read-out: % mortality (obs).
Setting [8] is: Myzus persicae, in Raphanus sativus, Green Peach Aphid, read-out: % mortality (obs).
Where [9] appears, read: Frankliniella occidentalis, 168 h, rate 1000 ppm, single compound, spray, 7 days, read-out: % mortality (obs).

In general, mortality refers to the share of the test organisms that died.

With `CCc1ccc(C(=O)NN(C(=O)c2cc(C)cc(C)c2)C(C)(C)C)cc1` [Tebufenozide], the mortality at 100 ppm was determined as 12% in data set [1] (Corn Plant Hopper, rate 100 ppm, read-out: % mortality (obs)); 2% in data set [2] (setting [7]); 8% in data set [3] (Myzus persicae, in Raphanus sativus, Green Peach Aphid, rate 100 ppm, read-out: % mortality (obs)); 70% in data set [6] (Frankliniella occidentalis, 168 h, rate 100 ppm, single compound, spray, 7 days, read-out: % mortality (obs)). Besides, the mortality at 1000 ppm in data set [1] (Corn Plant Hopper, rate 1000 ppm, read-out: % mortality (obs)) came to 16%; in data set [2] (setting [7]) it was 6%; in data set [3] (setting [8]), 7%; in data set [6] (setting [9]), 60%. Further, the mortality at 3000 ppm in data set [1] (Corn Plant Hopper, rate 3000 ppm, read-out: % mortality (obs)) stood at 12%; in data set [2] (Bemisia argentifolii, in Gossypium hirsutum, Table 2B, rate 3000 ppm, read-out: % mortality (obs)) it was 7%; in data set [3] (Myzus persicae, in Raphanus sativus, Green Peach Aphid, rate 3000 ppm, read-out: % mortality (obs)), 9%; in data set [6] (Frankliniella occidentalis, 168 h, rate 3000 ppm, single compound, spray, 7 days, read-out: % mortality (obs)), 60%. The mortality at 3 ppm in data set [4] (Empoasca fabae, rate 3 ppm, alone, read-out: % mortality (obs)) amounted to 40%; in data set [5] (Aphis gossypii, rate 3 ppm, read-out: % mortality (obs)) it was 22%. In addition, in data set [4] (Empoasca fabae, rate 4 ppm, alone, read-out: % mortality (obs)), the mortality at 4 ppm came to 27%. Also, in data set [4] (Empoasca fabae, rate 5 ppm, alone, read-out: % mortality (obs)), the mortality at 5 ppm is 20%. The mortality at 0.5 ppm in data set [5] (Aphis gossypii, rate 0.5 ppm, read-out: % mortality (obs)) was determined as 21%. Besides, in data set [5] (Aphis gossypii, rate 1.5 ppm, read-out: % mortality (obs)), the mortality at 1.5 ppm came out at 37%.

On to Cartap, for which the “% mortality (obs)” value in data set [1] (Corn Plant Hopper, rate 0.3 ppm) is reported as 100%; in data set [1] (Corn Plant Hopper, rate 3 ppm), 100%; in data set [1] (Corn Plant Hopper, rate 30 ppm), 100%; in data set [2] (Table 2B, rate 0.1 ppm) it was 0%; in data set [2] (Table 2B, rate 0.2 ppm), 0%; in data set [2] (Table 2B, rate 0.5 ppm), 0%. The “% mortality (obs)” value is listed as 11% in data set [3] (Green Peach Aphid, rate 0.2 ppm); 26% in data set [3] (Green Peach Aphid, rate 0.4 ppm); 17% in data set [3] (Green Peach Aphid, rate 0.6 ppm); 20% in data set [4] (rate 0.1 ppm, alone); 73% in data set [4] (rate 1 ppm, alone); 100% in data set [4] (rate 10 ppm, alone). The “% mortality (obs)” value in data set [5] (rate 0.2 ppm) worked out at 29%; in data set [5] (rate 2 ppm) it was 34%; in data set [5] (rate 200 ppm), 83%; in data set [6] (rate 1 ppm, single compound, spray, 7 days), 40%; in data set [6] (rate 1000 ppm, single compound, spray, 7 days), 100%; in data set [6] (rate 3000 ppm, single compound, spray, 7 days), 100%.

`CC1(C)CNC(=NN=C(/C=C/c2ccc(C(F)(F)F)cc2)/C=C/c2ccc(C(F)(F)F)cc2)NC1` [Hydramethylnon]: the mortality at 0.01 ppm in data set [1] (Corn Plant Hopper, rate 0.01 ppm, read-out: % mortality (obs)) is 7%; in data set [4] (Empoasca fabae, rate 0.01 ppm, alone, read-out: % mortality (obs)), 0%. Further, the mortality at 1 ppm in data set [1] (Corn Plant Hopper, rate 1 ppm, read-out: % mortality (obs)) worked out at 1%; in data set [4] (Empoasca fabae, rate 1 ppm, alone, read-out: % mortality (obs)) it was 27%. In addition, the mortality at 2 ppm in data set [1] (Corn Plant Hopper, rate 2 ppm, read-out: % mortality (obs)) was 6%; in data set [4] (Empoasca fabae, rate 2 ppm, alone, read-out: % mortality (obs)), 60%. Besides, the mortality at 10 ppm was found to be 2% in data set [2] (Bemisia argentifolii, in Gossypium hirsutum, Table 2B, rate 10 ppm, read-out: % mortality (obs)) and 60% in data set [6] (Frankliniella occidentalis, 168 h, rate 10 ppm, single compound, spray, 7 days, read-out: % mortality (obs)). In addition, the mortality at 100 ppm in data set [2] (setting [7]) stood at 1%. Further, the mortality at 1000 ppm amounted to 0% in data set [2] (setting [7]); 8% in data set [3] (setting [8]); 40% in data set [5] (Aphis gossypii, rate 1000 ppm, read-out: % mortality (obs)); 40% in data set [6] (setting [9]). Besides, the mortality at 500 ppm in data set [3] (Myzus persicae, in Raphanus sativus, Green Peach Aphid, rate 500 ppm, read-out: % mortality (obs)) is 18%; in data set [5] (Aphis gossypii, rate 500 ppm, read-out: % mortality (obs)), 21%; in data set [6] (Frankliniella occidentalis, 168 h, rate 500 ppm, single compound, spray, 7 days, read-out: % mortality (obs)) it was 50%. In addition, the mortality at 1500 ppm in data set [3] (Myzus persicae, in Raphanus sativus, Green Peach Aphid, rate 1500 ppm, read-out: % mortality (obs)) was 7%; in data set [5] (Aphis gossypii, rate 1500 ppm, read-out: % mortality (obs)), 39%.

For the compound `O=[N+]([O-])NC1=NCCN1Cc1ccc(Cl)nc1` [Imidacloprid], the mortality at 0.1 ppm in data set [1] (Table 5A, Imidacloprid 0.1 ppm, read-out: % Mortality (observed)) was 27%. Further, the mortality at 0.3 ppm worked out at 37% in data set [1] (Table 5A, Imidacloprid 0.3 ppm, read-out: % Mortality (observed)) and 10% in data set [5] (Aphis gossypii, Table 6A, Imidacloprid 0.3 ppm, read-out: % Mortality (observed)). For the same compound, the mortality at 1 ppm in data set [1] (Table 5A, Imidacloprid 1 ppm, read-out: % Mortality (observed)) was determined as 60%; in data set [4] (Empoasca fabae, Table 4A, Imidacloprid 1 ppm, read-out: % Mortality (observed)) it was 20%. In addition, the mortality at 10 ppm in data set [2] (Bemisia argentifolii, in Gossypium hirsutum, Table 2A, Imidacloprid 10 ppm, read-out: % Mortality (observed)) is 1%. For the same compound, the mortality at 22 ppm in data set [2] (Bemisia argentifolii, in Gossypium hirsutum, Table 2A, Imidacloprid 22 ppm, read-out: % Mortality (observed)) worked out at 2%. Further, in data set [2] (Bemisia argentifolii, in Gossypium hirsutum, Table 2A, Imidacloprid 48 ppm, read-out: % Mortality (observed)), the mortality at 48 ppm came out at 25%. The mortality at 0.08 ppm in data set [3] (Myzus persicae, in Raphanus sativus, Table 7A, Imidacloprid 0.08 ppm, read-out: % Mortality (observed)) came out at 4%. Further, in data set [3] (Myzus persicae, in Raphanus sativus, Table 7A, Imidacloprid 0.15 ppm, read-out: % Mortality (observed)), the mortality at 0.15 ppm is 12%. Besides, the mortality at 0.26 ppm in data set [3] (Myzus persicae, in Raphanus sativus, Table 7A, Imidacloprid 0.26 ppm, read-out: % Mortality (observed)) was determined as 50%. Moreover, in data set [4] (Empoasca fabae, Table 4A, Imidacloprid 0.2 ppm, read-out: % Mortality (observed)), the mortality at 0.2 ppm worked out at 20%. In addition, the mortality at 0.4 ppm in data set [4] (Empoasca fabae, Table 4A, Imidacloprid 0.4 ppm, read-out: % Mortality (observed)) is 0%. Besides, the mortality at 0.05 ppm in data set [5] (Aphis gossypii, Table 6A, Imidacloprid 0.05 ppm, read-out: % Mortality (observed)) came out at 12%. Also, the mortality at 2.1 ppm in data set [5] (Aphis gossypii, Table 6A, Imidacloprid 2.1 ppm, read-out: % Mortality (observed)) was 40%. In addition, the mortality at 11 ppm in data set [6] (Frankliniella occidentalis, Table 3A, Imidacloprid 11 ppm, read-out: % Mortality (observed)) is 20%. Further, the mortality at 77 ppm in data set [6] (Frankliniella occidentalis, Table 3A, Imidacloprid 77 ppm, read-out: % Mortality (observed)) was 37%. For the same compound, the mortality at 561 ppm in data set [6] (Frankliniella occidentalis, Table 3A, Imidacloprid 561 ppm, read-out: % Mortality (observed)) is 90%.
